Assay results published in the supplement of paper PMC10307832.

Experiments:
Test in all cases: relative viability (nuclei count vs DMSO), 5 days (fraction); higher = more cells survive
[1] = compound: C1=CC2=NC=CN=C2C=C1/C=C/3\C(=O)NC(=O)S3 + Nc1nc2[nH]cc(CCc3ccc(C(=O)N[C@@H](CCC(=O)O)C(=O)O)cc3)c2c(=O)[nH]1 [Pemetrexed] (partner 0.2 µM)
How it was run: (§1)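 Relative viability divides the nuclei count in treated wells by that in vehicle wells. Lung cancer cell lines were seeded in 1536-well plates, dosed by pin tool the next day, and fixed and stained after 5 days in one step with final 0.05% Triton X-100, 1% formaldehyde and 1 ug/ml Hoechst. Dosing was a single drug or a fixed anchor-drug dose plus five library-drug doses (not always all listed) in √10 steps, and values are medians of duplicate plates imaged at 4×.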

BGJ398 + Trametinib = compound: CCN1CCN(c2ccc(Nc3cc(N(C)C(=O)Nc4c(Cl)c(OC)cc(OC)c4Cl)ncn3)cc2)CC1 [BGJ398] + CC(=O)Nc1cccc(-n2c(=O)n(C3CC3)c(=O)c3c(Nc4ccc(I)cc4F)n(C)c(=O)c(C)c32)c1 [Trametinib] (partner 0.02 µM)
How it was run: as §1

BGJ398 + Foretinib = compound: CCN1CCN(c2ccc(Nc3cc(N(C)C(=O)Nc4c(Cl)c(OC)cc(OC)c4Cl)ncn3)cc2)CC1 [BGJ398] + COc1cc2c(Oc3ccc(NC(=O)C4(C(=O)Nc5ccc(F)cc5)CC4)cc3F)ccnc2cc1OCCCN1CCOCC1 [Foretinib] (partner 0.25 µM)
How it was run: as §1

BGJ398 + Pemetrexed = compound: CCN1CCN(c2ccc(Nc3cc(N(C)C(=O)Nc4c(Cl)c(OC)cc(OC)c4Cl)ncn3)cc2)CC1 [BGJ398] + Nc1nc2[nH]cc(CCc3ccc(C(=O)N[C@@H](CCC(=O)O)C(=O)O)cc3)c2c(=O)[nH]1 [Pemetrexed] (partner 0.2 µM)
How it was run: as §1

NCI-H2009
relative viability ([1]; first compound 0.02 µM): 1.05 | relative viability ([1]; first compound 0.06325 µM): 1.1 | relative viability ([1]; first compound 0.2 µM): 1.01 | relative viability ([1]; first compound 0.6325 µM): 1.01 | relative viability ([1]; first compound 2 µM): 1.18 | relative viability (BGJ398 + Trametinib; first compound 0.01 µM): 0.261 | relative viability (BGJ398 + Trametinib; first compound 0.03162 µM): 0.265 | relative viability (BGJ398 + Trametinib; first compound 0.1 µM): 0.219 | relative viability (BGJ398 + Trametinib; first compound 0.3162 µM): 0.23 | relative viability (BGJ398 + Trametinib; first compound 1 µM): 0.244 | relative viability (BGJ398 + Foretinib; first compound 0.01 µM): 1.11 | relative viability (BGJ398 + Foretinib; first compound 0.03162 µM): 1.24 | relative viability (BGJ398 + Foretinib; first compound 0.1 µM): 1.22 | relative viability (BGJ398 + Foretinib; first compound 0.3162 µM): 1.22 | relative viability (BGJ398 + Foretinib; first compound 1 µM): 1.26 | relative viability (BGJ398 + Pemetrexed; first compound 0.01 µM): 1.02 | relative viability (BGJ398 + Pemetrexed; first compound 0.03162 µM): 1.04 | relative viability (BGJ398 + Pemetrexed; first compound 0.1 µM): 1.04 | relative viability (BGJ398 + Pemetrexed; first compound 0.3162 µM): 1.11 | relative viability (BGJ398 + Pemetrexed; first compound 1 µM): 1.09

SW 900
relative viability ([1]; first compound 0.02 µM): 0.491 | relative viability ([1]; first compound 0.06325 µM): 0.471 | relative viability ([1]; first compound 0.2 µM): 0.481 | relative viability ([1]; first compound 2 µM): 0.487 | relative viability (BGJ398 + Trametinib; first compound 0.01 µM): 0.723 | relative viability (BGJ398 + Trametinib; first compound 0.03162 µM): 0.679 | relative viability (BGJ398 + Trametinib; first compound 0.1 µM): 0.655 | relative viability (BGJ398 + Trametinib; first compound 0.3162 µM): 0.735 | relative viability (BGJ398 + Trametinib; first compound 1 µM): 0.568 | relative viability (BGJ398 + Foretinib; first compound 0.01 µM): 0.856 | relative viability (BGJ398 + Foretinib; first compound 0.03162 µM): 0.823 | relative viability (BGJ398 + Foretinib; first compound 0.1 µM): 0.895 | relative viability (BGJ398 + Foretinib; first compound 0.3162 µM): 0.737 | relative viability (BGJ398 + Foretinib; first compound 1 µM): 0.668 | relative viability (BGJ398 + Pemetrexed; first compound 0.01 µM): 0.471 | relative viability (BGJ398 + Pemetrexed; first compound 0.03162 µM): 0.43 | relative viability (BGJ398 + Pemetrexed; first compound 0.1 µM): 0.469 | relative viability (BGJ398 + Pemetrexed; first compound 0.3162 µM): 0.348 | relative viability (BGJ398 + Pemetrexed; first compound 1 µM): 0.256

NCI-H2405
relative viability ([1]; first compound 0.02 µM): 1.1 | relative viability ([1]; first compound 0.06325 µM): 1.28 | relative viability ([1]; first compound 0.2 µM): 1.22 | relative viability ([1]; first compound 0.6325 µM): 1.05 | relative viability ([1]; first compound 2 µM): 0.859 | relative viability (BGJ398 + Trametinib; first compound 0.01 µM): 0.495 | relative viability (BGJ398 + Trametinib; first compound 0.03162 µM): 0.654 | relative viability (BGJ398 + Trametinib; first compound 0.1 µM): 0.622 | relative viability (BGJ398 + Trametinib; first compound 0.3162 µM): 0.463 | relative viability (BGJ398 + Trametinib; first compound 1 µM): 0.59 | relative viability (BGJ398 + Foretinib; first compound 0.01 µM): 1.03 | relative viability (BGJ398 + Foretinib; first compound 0.03162 µM): 1.1 | relative viability (BGJ398 + Foretinib; first compound 0.1 µM): 1.1 | relative viability (BGJ398 + Foretinib; first compound 0.3162 µM): 1.09 | relative viability (BGJ398 + Foretinib; first compound 1 µM): 0.972 | relative viability (BGJ398 + Pemetrexed; first compound 0.01 µM): 1.05 | relative viability (BGJ398 + Pemetrexed; first compound 0.03162 µM): 1.15 | relative viability (BGJ398 + Pemetrexed; first compound 0.1 µM): 1.09 | relative viability (BGJ398 + Pemetrexed; first compound 0.3162 µM): 1.3 | relative viability (BGJ398 + Pemetrexed; first compound 1 µM): 1.02

NCI-H1755
relative viability ([1]; first compound 0.02 µM): 0.394 | relative viability ([1]; first compound 0.06325 µM): 0.404 | relative viability ([1]; first compound 0.2 µM): 0.465 | relative viability ([1]; first compound 0.6325 µM): 0.428 | relative viability ([1]; first compound 2 µM): 0.444 | relative viability (BGJ398 + Trametinib; first compound 0.01 µM): 0.723 | relative viability (BGJ398 + Trametinib; first compound 0.03162 µM): 0.751 | relative viability (BGJ398 + Trametinib; first compound 0.1 µM): 0.725 | relative viability (BGJ398 + Trametinib; first compound 0.3162 µM): 0.638 | relative viability (BGJ398 + Trametinib; first compound 1 µM): 0.554 | relative viability (BGJ398 + Foretinib; first compound 0.01 µM): 0.88 | relative viability (BGJ398 + Foretinib; first compound 0.03162 µM): 0.985 | relative viability (BGJ398 + Foretinib; first compound 0.1 µM): 0.919 | relative viability (BGJ398 + Foretinib; first compound 0.3162 µM): 0.929 | relative viability (BGJ398 + Foretinib; first compound 1 µM): 0.955 | relative viability (BGJ398 + Pemetrexed; first compound 0.01 µM): 0.438 | relative viability (BGJ398 + Pemetrexed; first compound 0.03162 µM): 0.44 | relative viability (BGJ398 + Pemetrexed; first compound 0.1 µM): 0.428 | relative viability (BGJ398 + Pemetrexed; first compound 0.3162 µM): 0.443 | relative viability (BGJ398 + Pemetrexed; first compound 1 µM): 0.427

HCC-78
relative viability ([1]; first compound 0.02 µM): 0.925 | relative viability ([1]; first compound 0.06325 µM): 0.864 | relative viability ([1]; first compound 0.2 µM): 0.932 | relative viability ([1]; first compound 0.6325 µM): 0.838 | relative viability ([1]; first compound 2 µM): 0.927 | relative viability (BGJ398 + Trametinib; first compound 0.01 µM): 0.55 | relative viability (BGJ398 + Trametinib; first compound 0.03162 µM): 0.868 | relative viability (BGJ398 + Trametinib; first compound 0.1 µM): 0.858 | relative viability (BGJ398 + Trametinib; first compound 0.3162 µM): 0.696 | relative viability (BGJ398 + Trametinib; first compound 1 µM): 0.619 | relative viability (BGJ398 + Foretinib; first compound 0.01 µM): 0.563 | relative viability (BGJ398 + Foretinib; first compound 0.03162 µM): 0.597 | relative viability (BGJ398 + Foretinib; first compound 0.1 µM): 0.504 | relative viability (BGJ398 + Foretinib; first compound 0.3162 µM): 0.614 | relative viability (BGJ398 + Foretinib; first compound 1 µM): 0.549 | relative viability (BGJ398 + Pemetrexed; first compound 0.01 µM): 1.02 | relative viability (BGJ398 + Pemetrexed; first compound 0.03162 µM): 0.885 | relative viability (BGJ398 + Pemetrexed; first compound 0.1 µM): 0.88 | relative viability (BGJ398 + Pemetrexed; first compound 0.3162 µM): 0.91 | relative viability (BGJ398 + Pemetrexed; first compound 1 µM): 0.896

LOU-NH91
relative viability ([1]; first compound 0.02 µM): 0.376 | relative viability ([1]; first compound 0.06325 µM): 0.326 | relative viability ([1]; first compound 0.2 µM): 0.391 | relative viability ([1]; first compound 0.6325 µM): 0.399 | relative viability ([1]; first compound 2 µM): 0.407 | relative viability (BGJ398 + Trametinib; first compound 0.01 µM): 0.718 | relative viability (BGJ398 + Trametinib; first compound 0.03162 µM): 0.689 | relative viability (BGJ398 + Trametinib; first compound 0.1 µM): 0.779 | relative viability (BGJ398 + Trametinib; first compound 0.3162 µM): 0.705 | relative viability (BGJ398 + Trametinib; first compound 1 µM): 0.759 | relative viability (BGJ398 + Foretinib; first compound 0.01 µM): 0.943 | relative viability (BGJ398 + Foretinib; first compound 0.1 µM): 0.975 | relative viability (BGJ398 + Foretinib; first compound 0.3162 µM): 0.563 | relative viability (BGJ398 + Foretinib; first compound 1 µM): 0.951 | relative viability (BGJ398 + Pemetrexed; first compound 0.01 µM): 0.375 | relative viability (BGJ398 + Pemetrexed; first compound 0.03162 µM): 0.407 | relative viability (BGJ398 + Pemetrexed; first compound 0.1 µM): 0.408 | relative viability (BGJ398 + Pemetrexed; first compound 0.3162 µM): 0.376 | relative viability (BGJ398 + Pemetrexed; first compound 1 µM): 0.381

NCI-H3122
relative viability ([1]; first compound 0.02 µM): 0.224 | relative viability ([1]; first compound 0.06325 µM): 0.216 | relative viability ([1]; first compound 0.2 µM): 0.205 | relative viability ([1]; first compound 0.6325 µM): 0.2 | relative viability ([1]; first compound 2 µM): 0.195 | relative viability (BGJ398 + Trametinib; first compound 0.01 µM): 0.204 | relative viability (BGJ398 + Trametinib; first compound 0.03162 µM): 0.223 | relative viability (BGJ398 + Trametinib; first compound 0.1 µM): 0.245 | relative viability (BGJ398 + Trametinib; first compound 0.3162 µM): 0.19 | relative viability (BGJ398 + Trametinib; first compound 1 µM): 0.264 | relative viability (BGJ398 + Foretinib; first compound 0.01 µM): 1.01 | relative viability (BGJ398 + Foretinib; first compound 0.03162 µM): 0.973 | relative viability (BGJ398 + Foretinib; first compound 0.1 µM): 0.963 | relative viability (BGJ398 + Foretinib; first compound 0.3162 µM): 0.89 | relative viability (BGJ398 + Foretinib; first compound 1 µM): 0.971 | relative viability (BGJ398 + Pemetrexed; first compound 0.01 µM): 0.206 | relative viability (BGJ398 + Pemetrexed; first compound 0.03162 µM): 0.193 | relative viability (BGJ398 + Pemetrexed; first compound 0.1 µM): 0.192 | relative viability (BGJ398 + Pemetrexed; first compound 0.3162 µM): 0.188 | relative viability (BGJ398 + Pemetrexed; first compound 1 µM): 0.202

HCC-827
relative viability ([1]; first compound 0.02 µM): 0.246 | relative viability ([1]; first compound 0.06325 µM): 0.265 | relative viability ([1]; first compound 0.2 µM): 0.266 | relative viability ([1]; first compound 0.6325 µM): 0.268 | relative viability ([1]; first compound 2 µM): 0.274 | relative viability (BGJ398 + Trametinib; first compound 0.01 µM): 0.482 | relative viability (BGJ398 + Trametinib; first compound 0.1 µM): 0.542 | relative viability (BGJ398 + Trametinib; first compound 0.3162 µM): 0.399 | relative viability (BGJ398 + Trametinib; first compound 1 µM): 0.623 | relative viability (BGJ398 + Foretinib; first compound 0.01 µM): 0.926 | relative viability (BGJ398 + Foretinib; first compound 0.1 µM): 1.02 | relative viability (BGJ398 + Foretinib; first compound 0.3162 µM): 1 | relative viability (BGJ398 + Foretinib; first compound 1 µM): 1.13 | relative viability (BGJ398 + Pemetrexed; first compound 0.01 µM): 0.254 | relative viability (BGJ398 + Pemetrexed; first compound 0.1 µM): 0.277 | relative viability (BGJ398 + Pemetrexed; first compound 0.3162 µM): 0.184 | relative viability (BGJ398 + Pemetrexed; first compound 1 µM): 0.272
